Measurements reported in US20130224128A1, “DENTAL CLEANSER COMPOSITION FOR IMPROVING ADHESION TO TEETH” (NANO INTELLIGENT BIOMEDICAL ENGINEERING CO., LTD., priority 2010, published 2013).
Where two headings read alike, the source gives them in different places.

Details: surfactant applied for 2 minutes to plates coated with 100 μg/ml LPS, absorbance 620 nm, FIG. 6
Experimental: To measure the removal of bacterial lipopolysaccharide, a HEK-Blue LPS detection kit (InvivoGen, San Diego, Calif., USA) was used. 24-well plates were coated with 100 μg/ml of an LPS standard (E. coli K12 LPS) and allowed to stand at 4° C. for 8 hours. […] HEK-Blue cells were dispersed in detection media, after which the cells were seeded onto the plates at a density of 4×10^4 cells/well and cultured at 37° C. for 24 hours. The absorbance at a wavelength of 620 nm was measured using a microplate reader (BIO-TEK, Winooski, Vt., USA). The ratio of the remaining LPS standard was calculated using the absorbance of a lipopolysaccharide-free water-coated well as a blank.

In the case of Sorbitan monooleate [Span 80], the “relative ratio of the remaining LPS standard” value is reported as “higher in the order of polyoxyethylene (HLB 10)<Tween 20 (HLB 16)<Span 80 (HLB 4)”.

In the case of Tween 20, the “relative ratio of the remaining LPS standard” value is reported as “higher in the order of polyoxyethylene (HLB 10)<Tween 20 (HLB 16)<Span 80 (HLB 4)”.

With octyl phenol ethoxylate [Triton X-100] the “relative ratio of the remaining LPS standard” value was “the ratio of the remaining LPS standard was the lowest” and the “relative ratio of the remaining LPS standard” value (listed as octyl phenol ethoxylate) was “has the best effect on the removal of lipopolysaccharide”.
